Laboratory results taken from ChEMBL document CHEMBL1201862, “PubChem BioAssay data set” (2004).
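In this assay, cells in 96-well plates receive the compound at five concentrations for 48 hours. Endpoints are linearly interpolated between the surrounding concentrations. GI50 = concentration required for 50% inhibition of growth.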 Activity calls are given as the source filed them. Cut-off read from the data, not from the text of the source: active = GI50 up to about 1.1 µM and inactive = higher.

Assays:
Assay in all cases: inhibition of tumour cell growth, NCI panel, 48 h
SR = system: SR
UO-31 = system: UO-31
CAKI-1 = system: CAKI-1
NCI/ADR-RES = system: NCI/ADR-RES
MDA-N = system: MDA-N
BT-549 = system: BT-549
SW-620 = system: SW-620
SK-MEL-28 = system: SK-MEL-28
NCI-H522 = system: NCI-H522
SK-OV-3 = system: SK-OV-3
OVCAR-5 = system: OVCAR-5
DU-145 = system: DU-145
HL-60 = system: HL-60
HCC 2998 = system: HCC 2998
Hs-578T = system: Hs-578T
LOX IMVI = system: LOX IMVI
HOP-92 = system: HOP-92
SF-539 = system: SF-539
KM12 = system: KM12
HT-29 = system: HT-29
IGROV-1 = system: IGROV-1
Malme-3M = system: Malme-3M
SN12C = system: SN12C
RXF 393 = system: RXF 393
OVCAR-8 = system: OVCAR-8
OVCAR-4 = system: OVCAR-4
MDA-MB-231 = system: MDA-MB-231
NCI-H226 = system: NCI-H226
SF-268 = system: SF-268
HOP-62 = system: HOP-62
TK-10 = system: TK-10
T47D = system: T47D
A549 = system: A549
OVCAR-3 = system: OVCAR-3
NCI-H460 = system: NCI-H460
RPMI-8226 = system: RPMI-8226
NCI-H23 = system: NCI-H23
CCRF-CEM = system: CCRF-CEM
K562 = system: K562
PC-3 = system: PC-3
ACHN = system: ACHN
A498 = system: A498
HCT-15 = system: HCT-15
786-0 = system: 786-0
SK-MEL-2 = system: SK-MEL-2
HCT-116 = system: HCT-116
SF-295 = system: SF-295
U-251 = system: U-251
COLO 205 = system: COLO 205
EKVX = system: EKVX
MDA-MB-435 = system: MDA-MB-435
UACC-257 = system: UACC-257
SK-MEL-5 = system: SK-MEL-5
MOLT-4 = system: MOLT-4
M14 = system: M14
SNB-75 = system: SNB-75
SNB-19 = system: SNB-19
MCF7 = system: MCF7
UACC-62 = system: UACC-62

Measured: GI50

N#Cc1nc(/C=C/c2ccccc2)oc1N
> 100 µM: HCT-15
active: SR 0.252 µM
inactive: UO-31 7.26 µM | CAKI-1 > 100 µM | NCI/ADR-RES > 100 µM | MDA-N > 100 µM | BT-549 13.1 µM | SW-620 > 100 µM | SK-MEL-28 > 100 µM | NCI-H522 8.2 µM | SK-OV-3 > 100 µM | OVCAR-5 > 100 µM | DU-145 > 100 µM | HL-60 > 10 µM | HCC 2998 > 100 µM | Hs-578T > 100 µM | LOX IMVI > 100 µM | HOP-92 > 100 µM | SF-539 > 100 µM | KM12 > 100 µM | HT-29 > 100 µM | IGROV-1 > 100 µM | Malme-3M > 100 µM | SN12C > 100 µM | RXF 393 > 100 µM | OVCAR-8 > 100 µM | OVCAR-4 20.7 µM | MDA-MB-231 > 100 µM | NCI-H226 > 100 µM | SF-268 > 100 µM | HOP-62 > 100 µM | TK-10 > 100 µM | T47D > 100 µM | A549 > 100 µM | OVCAR-3 > 100 µM | NCI-H460 > 100 µM | RPMI-8226 34.5 µM | NCI-H23 > 100 µM | CCRF-CEM > 100 µM | K562 > 100 µM | PC-3 > 100 µM | ACHN > 100 µM | A498 > 100 µM | 786-0 > 100 µM | SK-MEL-2 > 100 µM | HCT-116 > 100 µM | SF-295 > 100 µM | U-251 > 100 µM | COLO 205 > 100 µM | EKVX > 100 µM | MDA-MB-435 > 100 µM | UACC-257 > 100 µM | SK-MEL-5 > 100 µM | MOLT-4 13.7 µM | M14 > 100 µM | SNB-75 > 100 µM | SNB-19 > 100 µM | MCF7 > 100 µM

CC(=O)O[C@H]1C(=O)[C@@]2(C)[C@H]([C@H](OC(=O)c3ccccc3)[C@]3(O)C[C@H](OC(=O)[C@H](O)[C@@H](NC(=O)CC(C)C)c4ccccc4)C(C)=C1C3(C)C)[C@]1(OC(C)=O)CO[C@@H]1C[C@@H]2O
0.547 µM: HCT-15
active: SR 0.00171 µM | CAKI-1 0.378 µM | MDA-N 0.0906 µM | BT-549 0.248 µM | SW-620 0.00289 µM | SK-MEL-28 0.00318 µM | NCI-H522 0.00247 µM | SK-OV-3 0.00433 µM | OVCAR-5 0.226 µM | DU-145 0.0232 µM | HL-60 0.00111 µM | HCC 2998 0.00303 µM | Hs-578T 0.0018 µM | LOX IMVI 0.00619 µM | HOP-92 0.508 µM | SF-539 0.00204 µM | HT-29 < 0.001 µM | IGROV-1 0.00285 µM | Malme-3M 0.0135 µM | SN12C 0.00524 µM | RXF 393 0.0141 µM | OVCAR-8 0.00548 µM | NCI-H226 0.038 µM | SF-268 0.00486 µM | UACC-62 0.00475 µM | HOP-62 0.0221 µM | TK-10 0.0383 µM | T47D 0.00399 µM | A549 0.00637 µM | NCI-H460 0.00334 µM | RPMI-8226 < 0.001 µM | NCI-H23 0.00321 µM | CCRF-CEM 0.00198 µM | K562 0.00179 µM | PC-3 0.00281 µM | ACHN 0.157 µM | A498 0.247 µM | 786-0 0.0378 µM | SK-MEL-2 0.00239 µM | HCT-116 0.00167 µM | SF-295 0.0445 µM | U-251 0.00879 µM | COLO 205 0.00178 µM | EKVX 0.428 µM | MDA-MB-435 < 0.001 µM | UACC-257 0.015 µM | SK-MEL-5 0.00251 µM | MOLT-4 0.00149 µM | SNB-75 < 0.001 µM | SNB-19 0.607 µM | MCF7 < 0.001 µM
inactive: UO-31 2.48 µM | NCI/ADR-RES > 8.61 µM | OVCAR-4 > 10 µM | MDA-MB-231 > 10 µM

CC(C)(Cc1ccccc1)NC1=NCCO1
inactive: SR > 100 µM | UO-31 > 100 µM | CAKI-1 > 100 µM | NCI/ADR-RES > 100 µM | MDA-N > 100 µM | BT-549 > 100 µM | SW-620 > 100 µM | SK-MEL-28 > 100 µM | NCI-H522 > 100 µM | SK-OV-3 > 100 µM | OVCAR-5 > 100 µM | DU-145 > 100 µM | HL-60 > 100 µM | HCC 2998 > 100 µM | Hs-578T 76.4 µM | LOX IMVI > 100 µM | HOP-92 > 100 µM | SF-539 > 100 µM | KM12 > 100 µM | HT-29 > 100 µM | IGROV-1 > 100 µM | Malme-3M > 100 µM | RXF 393 > 100 µM | OVCAR-8 > 100 µM | OVCAR-4 > 100 µM | MDA-MB-231 > 100 µM | NCI-H226 > 100 µM | UACC-62 > 100 µM | TK-10 > 100 µM | T47D > 10 µM | A549 > 100 µM | OVCAR-3 > 100 µM | NCI-H460 > 100 µM | RPMI-8226 > 100 µM | NCI-H23 > 100 µM | CCRF-CEM > 100 µM | K562 > 100 µM | PC-3 > 100 µM | ACHN > 100 µM | A498 > 100 µM | 786-0 > 100 µM | SK-MEL-2 > 100 µM | HCT-116 > 100 µM | SF-295 > 100 µM | U-251 > 100 µM | COLO 205 > 100 µM | EKVX > 100 µM | MDA-MB-435 > 100 µM | UACC-257 > 100 µM | SK-MEL-5 > 100 µM | MOLT-4 > 100 µM | M14 > 100 µM | SNB-75 35.2 µM | SNB-19 > 100 µM | MCF7 > 100 µM
> 100 µM: HCT-15

CCOC(=O)CNC(=O)C(CSC(=O)N(O)c1ccc(Br)cc1)NC(=O)CCC(N)C(=O)OCC (configuration not stated)
inactive: SR > 50 µM | UO-31 > 50 µM | CAKI-1 > 50 µM | NCI/ADR-RES > 50 µM | MDA-N > 50 µM | BT-549 > 50 µM | SW-620 45.1 µM | SK-MEL-28 > 50 µM | NCI-H522 > 50 µM | SK-OV-3 > 50 µM | OVCAR-5 > 50 µM | DU-145 > 50 µM | HCC 2998 > 50 µM | Hs-578T > 50 µM | LOX IMVI 40.1 µM | HOP-92 8.45 µM | SF-539 > 50 µM | KM12 45.8 µM | HT-29 > 50 µM | IGROV-1 > 50 µM | Malme-3M > 50 µM | SN12C > 50 µM | RXF 393 > 50 µM | OVCAR-8 > 50 µM | OVCAR-4 > 50 µM | MDA-MB-231 > 50 µM | NCI-H226 > 50 µM | SF-268 > 50 µM | UACC-62 > 50 µM | HOP-62 > 50 µM | T47D > 50 µM | A549 > 50 µM | OVCAR-3 > 50 µM | NCI-H460 > 50 µM | RPMI-8226 21 µM | NCI-H23 > 50 µM | CCRF-CEM 27.4 µM | K562 41.9 µM | PC-3 > 50 µM | ACHN > 50 µM | A498 > 50 µM | 786-0 > 50 µM | SK-MEL-2 > 50 µM | HCT-116 > 50 µM | SF-295 > 50 µM | U-251 > 50 µM | COLO 205 > 50 µM | EKVX > 50 µM | MDA-MB-435 24.4 µM | UACC-257 > 50 µM | SK-MEL-5 > 50 µM | MOLT-4 2.96 µM | M14 > 50 µM | SNB-19 > 50 µM | MCF7 > 50 µM
> 50 µM: HCT-15
active: HL-60 0.005 µM
